From ChEMBL document CHEMBL4364299, “Discovery of a Potent Kelch-Like ECH-Associated Protein 1-Nuclear Factor Erythroid 2-Related Factor 2 (Keap1-Nrf2) Protein-Protein Interaction Inhibitor with Natural Proline Structure as a Cytoprotective Agent against Acetaminophen-Induced Hepatotoxicity” (J Med Chem, 2019)
The source made the active and inactive calls.

Assays:
[1] = biological target: T1, Nuclear factor erythroid 2-related factor 2 (Homo sapiens) (UniProt Q16236); test: Activation of Nrf2 in human L02 cells assessed as increase in NEFL2L mRNA expression measured after 12 hrs by trizol reagent based qRT-PCR analysis; assay type: cell-based
T1 sequence (whole entry): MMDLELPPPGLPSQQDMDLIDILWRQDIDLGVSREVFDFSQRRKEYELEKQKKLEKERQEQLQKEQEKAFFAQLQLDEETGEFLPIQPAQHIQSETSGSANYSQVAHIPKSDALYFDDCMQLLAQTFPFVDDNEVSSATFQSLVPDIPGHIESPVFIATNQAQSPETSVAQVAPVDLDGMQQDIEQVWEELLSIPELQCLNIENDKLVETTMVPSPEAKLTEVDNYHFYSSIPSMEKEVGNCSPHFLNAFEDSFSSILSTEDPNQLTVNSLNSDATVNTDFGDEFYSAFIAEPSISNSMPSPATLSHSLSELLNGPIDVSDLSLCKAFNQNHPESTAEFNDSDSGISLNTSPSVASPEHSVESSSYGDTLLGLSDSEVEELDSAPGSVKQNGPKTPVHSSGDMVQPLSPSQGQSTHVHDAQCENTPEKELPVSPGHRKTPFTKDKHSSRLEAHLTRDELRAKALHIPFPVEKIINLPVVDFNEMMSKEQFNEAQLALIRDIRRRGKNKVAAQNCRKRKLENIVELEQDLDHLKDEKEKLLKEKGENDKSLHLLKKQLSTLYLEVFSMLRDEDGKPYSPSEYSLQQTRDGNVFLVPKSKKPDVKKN

[2] = biological target: T1, Nuclear factor erythroid 2-related factor 2 (Homo sapiens); test: Activation of Nrf2 (unknown origin) stably transfected in human HepG2-ARE-C8 cells assessed as increase in ARE-driven luciferase activity by luciferase reporter gene assay; assay type: cell-based
[3] = biological target: T1, Nuclear factor erythroid 2-related factor 2 (Homo sapiens); test: Activation of Nrf2 in human L02 cells assessed as increase in GCLM mRNA expression measured after 12 hrs by trizol reagent based qRT-PCR analysis; assay type: cell-based
[4] = biological target: T1, Nuclear factor erythroid 2-related factor 2 (Homo sapiens); test: Activation of Nrf2 in human L02 cells assessed as increase in NEFL2L mRNA expression at 10 uM measured after 8 to 24 hrs by trizol reagent based qRT-PCR analysis; assay type: cell-based
[5] = biological target: T1, Nuclear factor erythroid 2-related factor 2 (Homo sapiens); test: Activation of Nrf2 in human L02 cells assessed as increase in NQO-1 mRNA expression at 10 uM measured after 8 to 24 hrs by trizol reagent based qRT-PCR analysis; assay type: cell-based
[6] = biological target: T1, Nuclear factor erythroid 2-related factor 2 (Homo sapiens); test: Activation of Nrf2 in human L02 cells assessed as increase in HO-1 expression measured after 12 hrs by Western blot analysis; assay type: cell-based
[7] = biological target: T1, Nuclear factor erythroid 2-related factor 2 (Homo sapiens); test: Activation of Nrf2 in human L02 cells assessed as increase in NQO-1 expression measured after 12 hrs by Western blot analysis; assay type: cell-based
[8] = biological target: T1, Nuclear factor erythroid 2-related factor 2 (Homo sapiens); test: Activation of Nrf2 in human L02 cells assessed as increase in GCLM expression measured after 12 hrs by Western blot analysis; assay type: cell-based
[9] = biological target: T1, Nuclear factor erythroid 2-related factor 2 (Homo sapiens); test: Activation of Nrf2 in human L02 cells assessed as increase in NEFL2L expression at 10 uM measured after 4 to 72 hrs hrs by Western blot analysis; assay type: cell-based
[10] = biological target: T1, Nuclear factor erythroid 2-related factor 2 (Homo sapiens); test: Activation of Nrf2 in human L02 cells assessed as increase in HO-1 expression at 10 uM measured after 4 to 72 hrs hrs by Western blot analysis; assay type: cell-based
L02 [11] = test: Upregulation of NEFL2L mRNA expression in human L02 cells harboring Nrf2 siRNA at 10 uM measured after 10 hrs by trizol reagent based qRT-PCR analysis; assay type: functional, cell-based
L02 [12] = test: Upregulation of HO-1 expression in human L02 cells harboring Nrf2 siRNA at 10 uM measured after 10 hrs by Western blot analysis; assay type: functional, cell-based
L02 [13] = test: Upregulation of NQO-1 expression in human L02 cells harboring Nrf2 siRNA at 10 uM measured after 10 hrs by Western blot analysis; assay type: functional, cell-based
[14] = biological target: T1, Nuclear factor erythroid 2-related factor 2 (Homo sapiens); test: Activation of Nrf2 in human L02 cells harboring control siRNA assessed as increase in HO-1 expression at 10 uM measured after 10 hrs by Western blot analysis; assay type: cell-based
[15] = biological target: T1, Nuclear factor erythroid 2-related factor 2 (Homo sapiens); test: Activation of Nrf2 in human L02 cells harboring control siRNA assessed as increase in NQO-1 expression at 10 uM measured after 10 hrs by Western blot analysis; assay type: cell-based
L02 [16] = test: Cytoprotective activity against APAP-induced hepatotoxicity in human L02 cells assessed as increase in cell viability at 1 to 20 uM preincubated for 12 hrs followed by APAP addition and measured after 24 hrs by MTT assay; assay type: functional, cell-based
L02 [17] = test: Cytoprotective activity against APAP-induced hepatotoxicity in human L02 cells harboring Nrf2 siRNA assessed as increase in cell viability at 5 to 10 uM preincubated for 12 hrs followed by APAP addition and measured after 24 hrs by MTT assay; assay type: functional, cell-based
L02 [18] = test: Cytoprotective activity against APAP-induced oxidative stress in human L02 cells assessed as increase in GSH/GSSG ratio at 5 to 10 uM preincubated for 12 hrs followed by APAP stimulation and measured after 24 hrs; assay type: functional, cell-based
Mus musculus [19] = test: Protection against APAP-induced hepatotoxicity in C57BL/6 mouse assessed as decrease in reactive oxygen species level in liver at 10 to 40 mg/kg, ip treated 2 hrs prior to 22 hrs starvation followed by APAP challenge and measured after 6 hrs; assay type: functional, organism-based
Mus musculus [20] = test: Protection against APAP-induced hepatotoxicity in C57BL/6 mouse assessed as decrease in MDA activity in liver at 10 to 40 mg/kg, ip treated 2 hrs prior to 22 hrs starvation followed by APAP challenge and measured after 6 hrs; assay type: functional, organism-based
Mus musculus [21] = test: Protection against APAP-induced hepatotoxicity in C57BL/6 mouse assessed as decrease in MPO activity in liver at 10 to 40 mg/kg, ip treated 2 hrs prior to 22 hrs starvation followed by APAP challenge and measured after 6 hrs; assay type: functional, organism-based
Mus musculus [22] = test: Protection against APAP-induced hepatotoxicity in C57BL/6 mouse assessed as increase in GSH/GSSG ratio in liver at 10 to 40 mg/kg, ip treated 2 hrs prior to 22 hrs starvation followed by APAP challenge and measured after 6 hrs; assay type: functional, organism-based
Mus musculus [23] = test: Protection against APAP-induced hepatotoxicity in C57BL/6 mouse assessed as decrease in liver hemorrhage at 10 to 40 mg/kg, ip treated 2 hrs prior to 22 hrs starvation followed by APAP challenge and measured after 6 hrs by H and E staining-based light microscopic analysis; assay type: functional, organism-based
Mus musculus [24] = test: Protection against APAP-induced hepatotoxicity in C57BL/6 mouse assessed as decrease in ALP level at 10 mg/kg, ip treated 2 hrs prior to 22 hrs starvation followed by APAP challenge and measured after 6 hrs; assay type: functional, organism-based
Mus musculus [25] = test: Protection against APAP-induced hepatotoxicity in C57BL/6 mouse assessed as decrease in total bilirubin level at 10 mg/kg, ip treated 2 hrs prior to 22 hrs starvation followed by APAP challenge and measured after 6 hrs; assay type: functional, organism-based
Mus musculus [26] = test: Protection against APAP-induced hepatotoxicity in C57BL/6 mouse assessed as decrease in IL1beta production at 10 mg/kg, ip treated 2 hrs prior to 22 hrs starvation followed by APAP challenge and measured after 6 hrs; assay type: functional, organism-based
L02 [27] = conditions: Homo sapiens, 5 to 10 uM
Description: Cytoprotective activity against APAP-induced hepatotoxicity in human L02 cells assessed as inhibition of IL6 production at 5 to 10 uM preincubated for 12 hrs followed by APAP stimulation and measured after 24 hrs by ELISA

COc1ccc(S(=O)(=O)N(CC(=O)O)c2ccc(N3CCC[C@H]3C(=O)O)c3ccccc23)cc1
inactive: Activity (L02 [11]) | Activity (L02 [12]) | Activity (L02 [13]) | Activity (L02 [17])
active: Activity [1] Dose-dependent effect | Activity [2] Dose-dependent effect | Activity [3] Dose-dependent effect | Activity [4] | Activity [5] | Activity [6] Dose-dependent effect | Activity [7] Dose-dependent effect | Activity [8] Dose-dependent effect | Activity [9] | Activity [10] | Activity [14] | Activity [15] | Activity (L02 [16]) | Activity (L02 [18]) | Activity (Mus musculus [19]) | Activity (Mus musculus [20]) | Activity (Mus musculus [21]) | Activity (Mus musculus [22]) | Activity (Mus musculus [23]) | Activity (Mus musculus [24]) | Activity (Mus musculus [25]) | Activity (Mus musculus [26]) | inhibition (L02 [27])
